Our source for the IC50 values is patent publication US12473296B2, “Perk inhibiting compounds” (HiberCell, Inc., priority 2019, dated 2025).

One may read the IC50 as the midpoint of a concentration-inhibition curve.

Test [1] deals with EIF2AK3 (PERK) catalytic domain (amino acids 536-1116) (Homo sapiens (Human), UniProt Q9NZJ5). Briefly: PERK in vitro activity assay (isolated), TR-FRET kinase assay. The note with it: isolated PERK enzyme, 1.5 μM ATP, GFP-eIF2a substrate; read-out: Biochemical IC50. Put shortly: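 Human PERK catalytic domain (aa 536-1116) with 100-200 nM GFP-eIF2a in 50 mM HEPES pH 7.5, 10 mM MgCl2, 1.0 mM EGTA, 0.01% Brij-35; enzyme-started reaction run 45 min at room temperature. Stopped with 10 mM EDTA, 2 nM Tb-anti-phospho-eIF2a added for 90 min; IC50 from TR-FRET ratio by 4-parameter logistic fit.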
EIF2AK3 (PERK) catalytic domain (amino acids 536-1116), sequence (Q9NZJ5 536-1116): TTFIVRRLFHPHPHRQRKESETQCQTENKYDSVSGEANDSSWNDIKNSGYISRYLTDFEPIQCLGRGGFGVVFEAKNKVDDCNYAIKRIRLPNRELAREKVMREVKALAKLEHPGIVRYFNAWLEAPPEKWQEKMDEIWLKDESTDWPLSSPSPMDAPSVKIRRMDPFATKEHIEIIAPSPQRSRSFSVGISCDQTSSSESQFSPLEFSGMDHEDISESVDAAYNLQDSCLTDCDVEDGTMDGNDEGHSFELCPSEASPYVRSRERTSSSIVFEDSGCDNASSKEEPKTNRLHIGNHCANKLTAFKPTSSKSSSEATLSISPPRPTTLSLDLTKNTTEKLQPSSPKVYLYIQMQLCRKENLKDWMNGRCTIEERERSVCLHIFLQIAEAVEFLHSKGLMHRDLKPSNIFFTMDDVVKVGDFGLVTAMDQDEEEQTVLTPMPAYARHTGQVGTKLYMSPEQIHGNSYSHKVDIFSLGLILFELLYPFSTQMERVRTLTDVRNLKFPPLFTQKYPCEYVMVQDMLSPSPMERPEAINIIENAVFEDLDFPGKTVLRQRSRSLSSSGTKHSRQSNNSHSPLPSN

Another test has as its target PERK (Homo sapiens (Human), UniProt Q9NZJ5). Briefly: PERK cellular assay (TR-FRET, HEK293-EGFP-eIF2α cells, tunicamycin-induced ER stress). Type of test: cell-based. The note with it: tunicamycin 2 hours, read-out: Cellular IC50 (μM) (EIF2a). A digest of the protocol: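 Cells pre-incubated with inhibitor 30 min at 37 °C, then ER stress induced with […] tunicamycin for 2 h. TR-FRET read on lysates; ratio normalized to DMSO control as percent inhibition over a 10-point, 3-fold dilution series; IC50 from 4-parameter logistic fit.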
(TR-FRET usually uses a lanthanide donor and a delayed reading to cut background.)

PERK, sequence (Q9NZJ5 30-1116): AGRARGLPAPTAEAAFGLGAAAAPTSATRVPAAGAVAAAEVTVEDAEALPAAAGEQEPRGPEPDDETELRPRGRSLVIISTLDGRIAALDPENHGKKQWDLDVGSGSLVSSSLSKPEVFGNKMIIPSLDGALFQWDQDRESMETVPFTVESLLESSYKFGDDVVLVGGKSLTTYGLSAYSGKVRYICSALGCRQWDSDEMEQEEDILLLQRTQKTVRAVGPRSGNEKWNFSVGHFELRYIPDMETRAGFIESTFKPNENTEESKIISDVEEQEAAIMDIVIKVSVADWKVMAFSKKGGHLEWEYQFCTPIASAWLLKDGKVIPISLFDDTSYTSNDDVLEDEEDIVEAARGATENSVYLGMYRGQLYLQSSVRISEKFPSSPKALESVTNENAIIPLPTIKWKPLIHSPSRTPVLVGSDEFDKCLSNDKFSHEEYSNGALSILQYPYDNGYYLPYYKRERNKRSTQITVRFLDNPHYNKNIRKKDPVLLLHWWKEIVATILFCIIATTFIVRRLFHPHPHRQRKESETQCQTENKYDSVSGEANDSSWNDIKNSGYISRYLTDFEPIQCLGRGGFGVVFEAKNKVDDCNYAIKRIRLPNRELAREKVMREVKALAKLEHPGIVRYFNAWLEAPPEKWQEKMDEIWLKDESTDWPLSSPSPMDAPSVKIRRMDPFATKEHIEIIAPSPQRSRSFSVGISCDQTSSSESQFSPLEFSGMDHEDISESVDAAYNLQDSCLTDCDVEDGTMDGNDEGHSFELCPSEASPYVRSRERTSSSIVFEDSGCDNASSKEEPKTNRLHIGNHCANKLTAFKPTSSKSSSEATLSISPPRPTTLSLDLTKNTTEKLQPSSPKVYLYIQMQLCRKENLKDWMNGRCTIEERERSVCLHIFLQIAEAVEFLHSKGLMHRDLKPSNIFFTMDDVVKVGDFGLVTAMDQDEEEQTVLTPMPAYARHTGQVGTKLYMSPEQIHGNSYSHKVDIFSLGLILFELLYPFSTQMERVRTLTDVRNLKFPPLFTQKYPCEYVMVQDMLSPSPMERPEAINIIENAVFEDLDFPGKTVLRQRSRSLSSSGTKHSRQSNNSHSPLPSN

`CC(C)NC(=O)c1cc(-c2ccc(NC(=O)C(O)c3cc(F)cc(F)c3)cc2)cnc1N` (centres unmarked) [Example 80, 2-amino-5-(4-(2-(3,5-difluorophenyl)-2-hydroxyacetamido)phenyl)-N-isopropylnicotinamide]: the IC50 in test [1] fell in the range of 0.001 to 0.025 µM; on PERK, 0.251 to 0.5 µM.

Consider `CC(C)NC(=O)c1cc(-c2ccc(NC(=O)C(O)c3cc(F)cc(F)c3)cc2)cnc1N` (centres unmarked) [Example 81, 2-amino-5-(4-(2-(3,5-difluorophenyl)-2-hydroxyacetamido)phenyl)-N-isopropylnicotinamide], for which the IC50 lay in the range of 0.101 to 0.25 µM in test [1] and 4 to 5 µM at PERK.

For `CCNC(=O)c1cc(-c2ccc(NC(=O)C(O)c3cc(F)cc(F)c3)cc2Cl)cnc1N` (centres unmarked) [Example 82, 2-amino-5-(2-chloro-4-(2-(3,5-difluorophenyl)-2-hydroxyacetamido)phenyl)-N-ethylnicotinamide], the IC50 in test [1] lay within 0.001 to 0.025 µM; at PERK, 0.026 to 0.05 µM.

As to `CCNC(=O)c1cc(-c2ccc(NC(=O)C(O)c3cc(F)cc(F)c3)cc2Cl)cnc1N` (centres unmarked) [Example 83, 2-amino-5-(2-chloro-4-(2-(3,5-difluorophenyl)-2-hydroxyacetamido)phenyl)-N-ethylnicotinamide], the IC50 was in the range of 0.001 to 0.025 µM in test [1] and 0.251 to 0.5 µM on PERK.

Regarding `Nc1ncc(-c2ccc(NC(=O)C(O)c3cc(F)cc(F)c3)cc2Cl)cc1C(=O)NC1CC1` (centres unmarked) [Example 84, 2-amino-5-(2-chloro-4-(2-(3,5-difluorophenyl)-2-hydroxyacetamido)phenyl)-N-cyclopropyl-nicotinamide], the IC50 (in test [1]; on PERK) was 0.001 to 0.025 µM in each case.

As to `Nc1ncc(-c2ccc(NC(=O)C(O)c3cc(F)cc(F)c3)cc2Cl)cc1C(=O)NC1CC1` (centres unmarked) [Example 85, 2-amino-5-(2-chloro-4-(2-(3,5-difluorophenyl)-2-hydroxyacetamido)phenyl)-N-cyclo-propylnicotinamide], the IC50 was in the range of 0.001 to 0.025 µM in test [1] and 0.051 to 0.1 µM on PERK.

As for `Nc1ncc(-c2ccc(NC(=O)C(O)c3cc(F)cc(F)c3)cc2Cl)cc1C(=O)NCC(F)(F)F` (centres unmarked) [Example 86, 2-amino-5-(2-chloro-4-(2-(3,5-difluorophenyl)-2-hydroxyacetamido)phenyl)-N-(2,2,2-trifluoroethyl) nicotinamide], the IC50 (in test [1]; at PERK) was 0.001 to 0.025 µM in each case.

Regarding `Nc1ncc(-c2ccc(NC(=O)C(O)c3cc(F)cc(F)c3)cc2Cl)cc1C(=O)NCC(F)(F)F` (centres unmarked) [Example 87, 2-amino-5-(2-chloro-4-(2-(3,5-difluorophenyl)-2-hydroxyacetamido)phenyl)-N-(2,2,2-trifluoroethyl) nicotinamide], the IC50 was 0.026 to 0.05 µM in test [1] and 0.101 to 0.25 µM at PERK.

For the molecule `CCc1cccc(C(O)C(=O)Nc2ccc(-c3cnc(N)c(C(=O)NC(C)C)c3)c(Cl)c2)c1` (centres unmarked) [Example 94, 2-amino-5-(2-chloro-4-(2-(3-ethylphenyl)-2-hydroxyacetamido)phenyl)-N-isopropylnicotinamide], the IC50 (in test [1]; on PERK) was 0.001 to 0.025 µM each time.

Take `CCc1cccc(C(O)C(=O)Nc2ccc(-c3cnc(N)c(C(=O)NC(C)C)c3)c(Cl)c2)c1` (centres unmarked) [Example 95, 2-amino-5-(2-chloro-4-(2-(3-ethylphenyl)-2-hydroxyacetamido)phenyl)-N-isopropylnicotinamide]: the values for the IC50 (in test [1]; at PERK) were 0.026 to 0.05 µM and 0.101 to 0.25 µM, respectively.

On to `CCNC(=O)c1cc(-c2ccc(NC(=O)C(O)c3cc(F)cc(F)c3)cc2CC)cnc1N` (centres unmarked) [Example 98, 2-amino-5-(4-(2-(3,5-difluorophenyl)-2-hydroxyacetamido)-2-ethylphenyl)-N-ethylnicotinamide], for which the IC50 (in test [1]; at PERK) was 0.001 to 0.025 µM throughout.

Take `CCNC(=O)c1cc(-c2ccc(NC(=O)C(O)c3cc(F)cc(F)c3)cc2CC)cnc1N` (centres unmarked) [Example 99, 2-amino-5-(4-(2-(3,5-difluorophenyl)-2-hydroxyacetamido)-2-ethylphenyl)-N-ethylnicotinamide]: the IC50 in test [1] fell in the range of 0.026 to 0.05 µM; at PERK, 0.101 to 0.25 µM.

Consider `CCc1cc(NC(=O)C(O)c2cc(F)cc(F)c2)ccc1-c1cnc(N)c(C(=O)NCC(F)(F)F)c1` (centres unmarked) [Example 100, 2-amino-5-(4-(2-(3,5-difluorophenyl)-2-hydroxyacetamido)-2-ethylphenyl)-N-(2,2,2-trifluoroethyl) nicotinamide], for which the IC50 (in test [1]; at PERK) was 0.001 to 0.025 µM throughout.

Turning to `CCc1cc(NC(=O)C(O)c2cc(F)cc(F)c2)ccc1-c1cnc(N)c(C(=O)NCC(F)(F)F)c1` (centres unmarked) [Example 101, 2-amino-5-(4-(2-(3,5-difluorophenyl)-2-hydroxyacetamido)-2-ethylphenyl)-N-(2,2,2-trifluoroethyl) nicotinamide], the values for the IC50 (in test [1]; at PERK) were 0.001 to 0.025 µM and 0.051 to 0.1 µM, respectively.

Regarding `CCc1cc(NC(=O)C(O)c2cc(F)cc(F)c2)ccc1-c1cnc(N)c(C(=O)NC2CC2)c1` (centres unmarked) [Example 102, 2-amino-N-cyclopropyl-5-(4-(2-(3,5-difluorophenyl)-2-hydroxyacetamido)-2-ethylphenyl) nicotinamide], the IC50 (in test [1]; on PERK) was 0.001 to 0.025 µM each time.

Turning to `CCc1cc(NC(=O)C(O)c2cc(F)cc(F)c2)ccc1-c1cnc(N)c(C(=O)NC2CC2)c1` (centres unmarked) [Example 103, 2-amino-N-cyclopropyl-5-(4-(2-(3,5-difluorophenyl)-2-hydroxyacetamido)-2-ethylphenyl) nicotinamide], the figures for the IC50 (in test [1]; at PERK) were 0.026 to 0.05 µM and 0.101 to 0.25 µM, respectively.

With `CCc1cccc(C(O)C(=O)Nc2ccc(-c3cnc(N)c(C(=O)NC(C)C)c3)c(CC)c2)c1` (centres unmarked) [Example 106, 2-amino-5-(2-ethyl-4-(2-(3-ethylphenyl)-2-hydroxyacetamido)phenyl)-N-isopropylnicotinamide], the IC50 (in test [1]; on PERK) was 0.001 to 0.025 µM in each case.

For `CCc1cccc(C(O)C(=O)Nc2ccc(-c3cnc(N)c(C(=O)NC(C)C)c3)c(CC)c2)c1` (centres unmarked) [Example 107, 2-amino-5-(2-ethyl-4-(2-(3-ethylphenyl)-2-hydroxyacetamido)phenyl)-N-isopropylnicotinamide], the IC50 is 0.051 to 0.1 µM in test [1] and 0.251 to 0.5 µM on PERK.

Consider `CCc1cc(NC(=O)C(O)c2cccc(C(F)(F)F)c2)ccc1-c1cnc(N)c(C(=O)NC(C)C)c1` (centres unmarked) [Example 110, 2-amino-5-(2-ethyl-4-(2-hydroxy-2-(3-(trifluoromethyl)phenyl)acetamido)phenyl)-N-isopropylnicotinamide], for which the half-maximal inhibitory concentration (IC50) (in test [1]; at PERK) was 0.001 to 0.025 µM throughout.

With `CCc1cc(NC(=O)C(O)c2cccc(C(F)(F)F)c2)ccc1-c1cnc(N)c(C(=O)NC(C)C)c1` (centres unmarked) [Example 111, 2-amino-5-(2-ethyl-4-(2-hydroxy-2-(3-(trifluoromethyl)phenyl)acetamido)phenyl)-N-isopropylnicotinamide], the IC50 (in test [1]; at PERK) was 0.101 to 0.25 µM in each case.

Consider `COc1cc(NC(=O)C(O)c2cc(F)cc(F)c2)ccc1-c1cnc(N)c(C(=O)NC(C)C)c1` (centres unmarked) [Example 112, 2-amino-5-(4-(2-(3,5-difluorophenyl)-2-hydroxyacetamido)-2-methoxyphenyl)-N-isopropylnicotinamide], for which the values for the IC50 (in test [1]; at PERK) were 0.051 to 0.1 µM and 0.251 to 0.5 µM, respectively.

Regarding `CC(C)NC(=O)c1cc(-c2ccc(NC(=O)C(O)c3cc(F)cc(F)c3)cc2OC(F)(F)F)cnc1N` (centres unmarked) [Example 113, 2-amino-5-(4-(2-(3,5-difluorophenyl)-2-hydroxyacetamido)-2-(trifluoromethoxy)phenyl)-N-isopropylnicotinamide], the results for the IC50 (in test [1]; at PERK) were 0.051 to 0.1 µM and 0.501 to 1 µM, respectively.

As to `CC(C)NC(=O)c1cc(-c2ccc(NC(=O)C(O)c3cc(F)cc(F)c3)cc2OC(F)(F)F)cnc1N` (centres unmarked) [Example 114, 2-amino-5-(4-(2-(3,5-difluorophenyl)-2-hydroxyacetamido)-2-(trifluoromethoxy)phenyl)-N-isopropylnicotinamide], the half-maximal inhibitory concentration (IC50) in test [1] was 0.251 to 0.5 µM; at PERK, over 5 µM.

With `Cc1c(-c2cnc(N)c(C(=O)NC(C)C)c2)ccc(NC(=O)C(O)c2cc(F)cc(F)c2)c1F` (centres unmarked) [Example 115, 2-amino-5-(4-(2-(3,5-difluorophenyl)-2-hydroxyacetamido)-3-fluoro-2-methylphenyl)-N-isopropylnicotinamide], the IC50 (in test [1]; on PERK) was 0.001 to 0.025 µM throughout.

As for `Cc1c(-c2cnc(N)c(C(=O)NC(C)C)c2)ccc(NC(=O)C(O)c2cc(F)cc(F)c2)c1F` (centres unmarked) [Example 116, 2-amino-5-(4-(2-(3,5-difluorophenyl)-2-hydroxyacetamido)-3-fluoro-2-methylphenyl)-N-isopropylnicotinamide], the IC50 is 0.251 to 0.5 µM in test [1] and 1 to 2 µM at PERK.

On to `CCNC(=O)c1cc(-c2ccc(NC(=O)C(O)c3cc(F)cc(F)c3)c(F)c2C)cnc1N` (centres unmarked) [Example 117, 2-amino-5-(4-(2-(3,5-difluorophenyl)-2-hydroxyacetamido)-3-fluoro-2-methylphenyl)-N-ethylnicotinamide], for which the IC50 (in test [1]; at PERK) was 0.001 to 0.025 µM in each case.

Turning to `CCNC(=O)c1cc(-c2ccc(NC(=O)C(O)c3cc(F)cc(F)c3)c(F)c2C)cnc1N` (centres unmarked) [Example 118, 2-amino-5-(4-(2-(3,5-difluorophenyl)-2-hydroxyacetamido)-3-fluoro-2-methylphenyl)-N-ethylnicotinamide], the results for the IC50 (in test [1]; at PERK) were 0.001 to 0.025 µM and 0.026 to 0.05 µM, respectively.

Take `Cc1c(-c2cnc(N)c(C(=O)NC3CC3)c2)ccc(NC(=O)C(O)c2cc(F)cc(F)c2)c1F` (centres unmarked) [Example 119, 2-amino-N-cyclopropyl-5-(4-(2-(3,5-difluorophenyl)-2-hydroxyacetamido)-3-fluoro-2-methylphenyl) nicotinamide]: the IC50 (in test [1]; on PERK) was 0.001 to 0.025 µM in each case.
